In article PMC12595434, “Development of retinoid nuclear receptor pathway antagonists through targeting aldehyde dehydrogenase 1A3” (iScience, 2025):

Legend:
[1] = biological target: T1, ALDH1A3 (Homo sapiens, UniProt P47895); test: Recombinant enzyme activity assay; type: biochemical; parameters: made in house; host or cells: BL21-DE3 E. coli; settings: dose titration, up to 10 μM
T1 sequence (P47895 1-512): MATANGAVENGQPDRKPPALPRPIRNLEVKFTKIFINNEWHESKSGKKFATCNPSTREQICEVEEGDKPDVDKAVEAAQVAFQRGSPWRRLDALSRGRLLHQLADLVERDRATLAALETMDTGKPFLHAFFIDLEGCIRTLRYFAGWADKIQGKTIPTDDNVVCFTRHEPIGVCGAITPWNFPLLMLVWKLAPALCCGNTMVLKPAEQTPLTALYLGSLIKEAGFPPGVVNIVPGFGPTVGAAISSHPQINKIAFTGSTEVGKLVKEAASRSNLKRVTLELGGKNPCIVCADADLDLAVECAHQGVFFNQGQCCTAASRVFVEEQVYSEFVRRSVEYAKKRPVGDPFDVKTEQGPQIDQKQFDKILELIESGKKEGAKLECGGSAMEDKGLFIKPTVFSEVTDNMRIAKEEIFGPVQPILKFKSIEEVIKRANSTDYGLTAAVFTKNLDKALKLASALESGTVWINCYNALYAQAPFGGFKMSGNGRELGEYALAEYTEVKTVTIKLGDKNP

[2] = biological target: T2, human ALDH1A3 in A375 cells (Homo sapiens, UniProt P47895); test: Aldefluor assay in A375 cells; type: cell-based; settings: up to 10 μM
T2 construct: the cell lines with high endogenous ALDH1A3 activity: MDA-MB-468 (triple-negative breast cancer), A375 (melanoma), and LN229 (glioblastoma); endogenous in cells; host or cells: A375
T2 sequence (P47895 1-512): T1 sequence (P47895 1-512)

[3] = biological target: T3, human ALDH1A2 (Homo sapiens, UniProt O94788); test: Recombinant enzyme activity assay; type: biochemical; settings: dose titration, up to 10 μM
T3 construct: made in house; host or cells: BL21-DE3 E. coli
T3 sequence (O94788 1-518): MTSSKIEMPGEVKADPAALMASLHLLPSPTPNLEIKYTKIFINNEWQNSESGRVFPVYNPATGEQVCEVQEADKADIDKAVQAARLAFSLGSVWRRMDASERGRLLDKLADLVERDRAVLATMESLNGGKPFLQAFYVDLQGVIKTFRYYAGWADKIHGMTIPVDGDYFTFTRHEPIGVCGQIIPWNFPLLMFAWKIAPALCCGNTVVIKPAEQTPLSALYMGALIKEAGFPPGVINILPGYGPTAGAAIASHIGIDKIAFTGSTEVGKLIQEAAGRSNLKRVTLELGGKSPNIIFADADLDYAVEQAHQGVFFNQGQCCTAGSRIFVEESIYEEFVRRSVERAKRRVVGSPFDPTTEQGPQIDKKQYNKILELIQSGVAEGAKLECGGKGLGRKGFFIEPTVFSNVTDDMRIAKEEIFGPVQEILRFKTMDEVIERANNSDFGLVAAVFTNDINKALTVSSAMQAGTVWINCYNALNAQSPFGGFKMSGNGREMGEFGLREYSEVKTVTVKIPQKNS
Procedure: Human and mouse ALDH enzymes were cloned from respective reference RNA, constructed into plasmids using restriction enzyme cloning and confirmed by Sanger Sequencing. Genes were cloned into a vector containing the T7 promoter for bacterial expression and into a lentiviral expression vector for cell line expression as previously described.[78] Recombinant protein was isolated by inducing BL21-DE3 E. coli (Thermo Fisher) containing the respective plasmid for 20 h at room temperature, shaking, with 300 μM IPTG (Selleck Chem). Cell disruption was achieved via ultrasonication (Φ10, 3s on/6s off, 25min) in 1L of amplified bacterial culture. The target protein was then purified using Ni NTA beads 6FF affinity chromatography. Lysis buffer consisted of 50 mM Na2HPO4, 300 mM NaCl, 1 mM β-ME, pH7.5. The column (2 mL) was washed with 50 mM Na2HPO4, 300 mM NaCl, 1 mM β-ME, 20 mM Imidazole, pH7.5. Elution was performed using 3 mL of 50 mM Na2HPO4, 300 mM NaCl, 1 mM β-ME, 250 mM Imidazole, pH7.5. Following affinity chromatography, the protein underwent further purification via Gel filtration chromatography using a Superdex200 column. Aliquots were quality controlled against a pure internal standard enzyme and/or by western blot to confirm enzyme expression. Purified enzyme was used for biochemical and biophysical assays.
For the recombinant enzyme activity assay, enzyme aliquots were thawed on ice for 4 h prior to analysis and the protocol was performed as described[8] with the following key changes: 1) Final concentrations of NAD+ (Gold Bio) were 200 μM and BSA were 1 mg/mL 2) Propanaldehyde was used as the substrate for ALDH1A1 and ALDH2. 3) Reaction velocity was monitored through diaphorase (clostridium) coupled reduction of resazurin (100 μM) monitored with ex/em of 560nm/590 nm in order to regenerate NAD+ and thus maintain constant cofactor concentration as well as to avoid high absorbance values of many screening compounds at the NADH absorbance. Assays were conducted at room temperature (controlled to 21-23C) and all buffers were maintained at pH 7.5. For all reactions, pre-incubation time was approximately 2 min while the reaction monitoring was performed over 10 min.

[4] = biological target: T4, ALDH1A1 in HepG2 cells (Homo sapiens, UniProt P00352); test: Aldefluor assay in HepG2 cells; type: cell-based; settings: 45 min incubation at 37°C
T4 construct: endogenous in cells; host or cells: HepG2
Procedure: In addition, cells were suspended at a concentration of 100,000 cells per mL. Finally, DMSO was added to at 1% final in all cells to improve kinetics of the assay. For compound titrations, concentrated compound stock was added first to tubes and a uniform Aldefluor buffer containing the cell suspension was added to dilute to final volumes. Cells were analyzed by a BD LSRII for flow cytometry and were sorted using a FACSAria Fusion cell sorter (BD Biosciences) equipped with a 70 micron nozzle. Sample and sort collection tubes were kept at 4°C. […] DAPI was used as a live-dead indicator.

[5] = biological target: T5, human ALDH1A1 (Homo sapiens, UniProt P00352); test: Recombinant enzyme activity assay; type: biochemical; settings: dose titration, up to 10 μM
T5 construct: made in house; host or cells: BL21-DE3 E. coli
T5 sequence (P00352 1-501): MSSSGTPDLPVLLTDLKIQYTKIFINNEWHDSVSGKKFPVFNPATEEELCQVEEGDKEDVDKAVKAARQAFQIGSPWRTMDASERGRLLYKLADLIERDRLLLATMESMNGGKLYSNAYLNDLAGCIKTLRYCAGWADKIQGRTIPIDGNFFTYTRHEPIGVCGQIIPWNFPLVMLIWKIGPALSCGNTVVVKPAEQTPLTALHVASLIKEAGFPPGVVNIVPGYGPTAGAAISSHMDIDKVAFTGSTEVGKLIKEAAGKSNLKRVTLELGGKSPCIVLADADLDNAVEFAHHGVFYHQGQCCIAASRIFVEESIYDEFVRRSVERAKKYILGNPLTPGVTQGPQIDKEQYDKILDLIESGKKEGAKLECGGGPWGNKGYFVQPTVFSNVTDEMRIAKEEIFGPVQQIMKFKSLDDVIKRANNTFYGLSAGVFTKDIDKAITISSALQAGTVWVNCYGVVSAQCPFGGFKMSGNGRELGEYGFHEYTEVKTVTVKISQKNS

[6] = system: ALDH1A3; settings: read-out: reported IC50 for ALDH1A3; cited from earlier work
[7] = system: MDA-MB-468 cells; settings: MDA-MB-468, 24 hour incubation, highest tested dose 10 μM
[8] = system: HaCaT cells; test: Dose-titration cytotoxicity analysis; settings: 24 hour incubation, highest tested dose 10 μM
[9] = system: ALDH1A3 cells; settings: cited from earlier work
[10] = system: GABAA

Compound | inhibitory activity against ALDH1A3 (in words) [1] | activity in Aldefluor assay, A375 cells (in words) [2] | inhibitory activity against ALDH1A2 (in words) [3] | inhibition at 10 µM [4] [%] | inhibitory activity against ALDH1A1 (in words) [5] | IC50 [6] [nM] | nonspecific cytotoxicity (in words) [7] | nonspecific cytotoxicity (in words) [8] | reported cytotoxic activity against ALDH1A3 cells (in words) [9] | inhibition [10] [%]
CSC(=O)C#CC(C)(C)N(C)C [DIMATE, S-methyl 4-(dimethylamino)-4-methyl-pent-2-ynethioate] | did not show any activity | no dose-dependent inhibition of activity | did not show any activity | 13 | did not show any activity |  |  |  |  | 
c1ccc(-c2ccc3nc(-c4ccccc4)cn3c2)cc1 [GA11] | no ALDH1A3 inhibitory activity up to 10 μM |  | no activity up to 10 μM |  | no activity up to 10 μM | 660 | potent cytotoxicity above 100 nM | potent cytotoxicity above 100 nM | picomolar | 
CCOC(=O)c1ncn2c1CN(C)C(=O)c1cc(F)ccc1-2 [flumazenil] |  |  |  |  |  |  |  |  |  | 95.9
